Data: publication PMC5855875, “Teixobactin analogues reveal enduracididine to be non-essential for highly potent antibacterial activity and lipid II binding” (Chemical Science, 2017)
In brackets after ≈: the same amount, converted by molar mass. Bridge positions count the residues as written; N and C are the ends. Square brackets hold non-standard residues; d marks the D form. Peptide text beside a SMILES is read from it. d(aIle) = CC[C@H](C)[C@@H](N)C(=O)O; dNMeF = CN[C@H](Cc1ccccc1)C(=O)O

Experiments:
[1] = tested on: M. smegmatis ATCC 607; test: microbe, parasite or virus in culture
Description: (§1) were grown in Mueller Hinton broth (Oxoid) in triplicate. All incubations were at 37°C. Dilutions were carried out in triplicate. 100 µl of autoclaved Mueller Hinton broth was added to wells 2-12 in a 96-well plate. 200 µl of the peptide was added to well one at a concentration of 256 µg/mL. 100µl of peptide in well one was taken up and pipetted into well two. The mixture was then mixed via pipetting before 100µl was taken up and pipetted into well three. This process was repeated up to well 11. Once […]
(§2) peptide present. Thus, the concentrations (in µg/mL) were: 256, 128, 64, 32, 16, 8, 4, 2, 1, 0.5, 0.25 and no peptide present. Each well was then inoculated with 100µl of bacteria that had been diluted to an […]
(§3) This was repeated three times. The 96-well plates were then incubated at 37°C for 24 hours. The MIC was determined to be the lowest concentration at which there was no growth visible. […]
(§4) was repeated at an altered initial concentration of 64 µg/ml. Therefore, the new concentrations for MIC […]
Middlebrook 7H9 broth (SIGMA) supplemented to 5% Middlebrook ADC (SIGMA) growth

[2] = tested on: Staphylococcus aureus ATCC 29213; test: microbe, parasite or virus in culture; conditions: for MIC (without polysorbate 80): ATCC 29213, 24 h; for MIC (with polysorbate 80): S. aureus ATCC 29213, MHB containing polysorbate 80 (0.002%, v/v); for MIC (with polysorbate 80) / MBC: 37 °C, 24 h; for MBC: Staphylococcus aureus ATCC 29213, plated on MHA
Description: (§5) VIII. MIC testing (extended panel)
(§6) Bacterial cultures were grown overnight i n Mueller-Hinton Agar (MHA) plates and adjusted to a final concentration of 10 5 – 106 CFU/ml. 100 µl of inoculum in Meuller -Hinton broth (MHB) was mixed with equal volume of peptides (dissolved in MHB) at 2x their concentration in a 96 well plate. In parallel experiments, MIC values were determined in the media containing polysorbate 80 (0 .002%, v/v) to […]
(§7) prevent non-specific adsorption of the peptides to plastic surfaces. The final peptides concentrations […]
(§8) Positive and negative controls contained 200 µl of inoculum without any peptide dissolved in broth, respectively. The 96 well plates were then incubated at 37 °C for 24 h.
(§9) All the experiments were performed in two independent duplicates and the MIC was determined as the […]
(§10) Minimum bactericidal concentration
(§11) The lowest concentration in which no visible colonies could be detected was taken as the MBC.
(§12) 80. Strain information: MRSA 1: MRSA ATCC 700699, MRSA 2: MRSA DR 42412 (sputum), MRSA
(§13) 3: MRSA DM21455 (eye). […] Staphylococcus aureus ATCC

[3] = tested on: MRSA 1: MRSA ATCC 700699; test: microbe, parasite or virus in culture; conditions: for MBC: plated on MHA; for MBC / MIC (with polysorbate 80): 24 h; for MIC (with polysorbate 80): MRSA 1, MHB containing polysorbate 80 (0.002%, v/v), two independent duplicates
Description: as §5, §6, §7, §8, §9, §10, §11, §12, §13

[4] = tested on: MRSA 3: MRSA DM21455 (eye); test: microbe, parasite or virus in culture; conditions: for MIC (with polysorbate 80): MRSA 3, MHB containing polysorbate 80 (0.002%, v/v)
Description: as §5, §6, §7, §8, §9, §10, §11, §12, §13

[5] = tested on: MRSA ATCC 33591; test: microbe, parasite or virus in culture
Description: as §1, §2, §3, §4, §5, §6

[6] = tested on: MRSA 2: MRSA DR 42412 (sputum); test: microbe, parasite or virus in culture; conditions: for MIC (with polysorbate 80): MRSA 2, MHB containing polysorbate 80 (0.002%, v/v)
Description: as §5, §6, §7
(§14) Positive and negative controls contained 200 µl of inoculum without any peptide dissolved in broth, respectively. The 96 well plates were then incubated at 37 °C for 24 h. […]
as §12, §13

[7] = Lipid II TLC binding assay; conditions: peptide : lipid II 2 : 1; 50 mM Tris/HCl, pH 7.5, 30 min, room temperature; three independent experiments
Description: X. Complex formation of teixobactin with lipid II and geranyl pyrophosphate Complex formation of teixobactin analogues 8 (Ala10-teixobactin) and 16 (Arg10-teixobactin) with lipid II and geranyl pyrophosphate was performed using TLC as described previously.7 Binding of teixobactin to lipid II and geranyl pyrophosphate was analysed by incubating 30 µL of 2 nmol of each precursor with 2 or 4 nmoles of teixobactin in 50 mM Tris/HCl, pH 7.5, for 30 min at room temperature. Complex formation was analysed by extracting unbound precursors from the reaction mixture with 30 µL n- butanol/6M pyridine acetate (pH 4.2) (2:1; vol/vol) followed by TLC analysis of the organic layer using chloroform/methanol/water/ammonia (88:48:10:1, v/v/v/v) as the solvent and detection of lipid/phosphate containing precursors by phosphomolybdic acid staining. The TLC figures represent the results obtained through thr ee independent experiments.
Figure S76 : Binding of teixobactin analogues 8 (Ala10-teixobactin ) and 16 (Arg10-teixobactin) with lipid II using the protocols described in literature .7 Partial binding is observed when the ratio of lipid II to the analogue is 1:1 (indicated by lighter spots on the TLC) and complete binding is observed when the ratio of lipid II to the analogue is 1:2 in case of analogue 16 and 1:4 in case of analogue 8 (indicated […]
(§15) (also on this page, place not known: polyso rbate vancomycin , concentr ation 80 . wer e µ l (10 1-105 10 10 previously n - TL C three S76: (Ala10-teixobactin) literature.7 Lipid II Lipid II: Compound 8 = 1:1 Lipid II: Compound 16 = 1:1 Lipid II: Compound 8 = 1:2 Lipid II: Compound 16 = 1:2 Lipid II: Compound 8 = 1:4)

[8] = tested on: VRE 1: VRE ATCC 700802; test: organism not typed; conditions: for MIC (with polysorbate 80): VRE 1, MHB containing polysorbate 80 (0.002%, v/v), 37 °C, 24 h
Description: as §5, §6, §7, §14, §12, §13

[9] = tested on: VRE 2: VRE ATCC 29212; test: organism not typed; conditions: for MIC (with polysorbate 80): VRE 2, MHB containing polysorbate 80 (0.002%, v/v), 37 °C, 24 h
Description: as §5, §6, §7, §14, §12, §13

[10] = tested on: rabbit erythrocytes; format: cell-based; conditions: rabbit erythrocytes 4% v/v; peptides 0.195 – 250 µg/ml; 37°C, 1 h; haemoglobin release spectrophotometrically; average of triplicate experiments
Description: Fig. 5 Hemolytic activity of teixobactin analogues 12 and 13 for rabbit erythrocytes. The blood cells were exposed to various concentrations of peptides for 1 h and the release of haemoglobin was determined spectrophotometrically. Each value represents an average of triplicate experiments.
Cytotoxicity assay by Formazan bioreduction
Medium (DMEM) supplemented with 10% serum. The cells were repeatedly rinsed with Hank’s
in HBSS 24 hrs post-seeding.
were incubated for 3 hrs at 37°C.
XII. Haemolytic Assay Protocol
Hemolytic assay was performed

[11] = tested on: MRSA DM21455; test: Time-kill kinetics; format: cell-based, Methicillin-resistant Staphylococcus aureus; conditions: 0.5 μg mL^–1; MHB containing 0.002% v/v polysorbate 80; 37 °C; average of two independent experiments
Description: IX. Time-dependent killing of bacteria by teixobactin analogues 12 and 13 Time-kill kinetics against MRSA DM21455 strains (clinical isolates from patients) was carried out in MHB. Cultures were grown overnight in MHA plates and adjusted to a final inoculum of 10^5 – 10^6 CFU/ml in MHB (containing 0.002% v/v, polysorbate 80) with teixobactin analogues 12 and 13 maintained at a final concentration of 0.5 µg/ml. For vancomycin, the concentration was varied from 0.5 – 16 µg/ml without polysorbate 80. The tubes were then incubated at 37 °C. 100 µl of cell suspension was withdrawn at various time points (0, 2, 4, 8, 24 h), serially diluted (101-105 fold dilutions) and plated onto a MHA plates and incubated for 24 h at 37 °C.
Colonies were then enumerated […]. Colony counting too numerous to count (>300 colonies) was taken as 1010 CFU. Average values from two independent experiments are reported. […]
as §15

[12] = MRSA 1 (MRSA ATCC 700699), 37 °C

CC[C@H](C)[C@H](NC(=O)[C@@H](Cc1ccccc1)NC)C(=O)N[C@@H](CO)C(=O)N[C@H](CCC(N)=O)C(=O)N[C@@H](C(=O)N[C@H](C(=O)N[C@@H](CO)C(=O)N[C@H]1C(=O)N[C@@H](C)C(=O)N[C@@H](CCCNC(=N)N)C(=O)N[C@@H]([C@@H](C)CC)C(=O)O[C@H]1C)[C@@H](C)CC)[C@@H](C)CC [Compound 16, Arg10-teixobactin]
MIC ([1]; M. smegmatis ATCC 607, Middlebrook 7H9 broth with 5% ADC, 37°C, 140RPM, reading after 72 hours): 1–2 μg mL^–1 | MIC (without polysorbate 80) [2]: 2 µg/mL (≈ 1.61 µM) | MIC (with polysorbate 80) [2]: 0.25 µg/mL (≈ 0.201 µM) | MBC [2]: 1 μg mL^–1 | MIC (without polysorbate 80) ([3]; ATCC 700699, 24 h): 4 µg/mL (≈ 3.21 µM) | MIC ([3]; MRSA 1 (MRSA ATCC 700699), Mueller Hinton broth, 37 °C, 24 h (Table 2)): 1 μg mL^–1 | MBC [3, 12]: 2 μg mL^–1 | MIC (with polysorbate 80) ([3]; 37 °C): 1 µg/mL (≈ 0.804 µM) | MIC (without polysorbate 80) ([4]; 3: DM21455 (eye, 24 h)): 4 µg/mL (≈ 3.21 µM) | MBC ([4]; MRSA 3 (MRSA DM21455), plated on MHA, 37 °C, 24 h): 1 μg mL^–1 | MIC ([4]; MRSA 3 (MRSA DM21455, eye, clinical isolate), Mueller Hinton broth, 37 °C, 24 h (Table 2)): 0.5 μg mL^–1 | MIC (with polysorbate 80) ([4]; 37 °C, 24 h): 0.5 µg/mL (≈ 0.402 µM) | MIC ([5]; MRSA ATCC 33591, Mueller Hinton broth (Oxoid), peptides in DMSO containing 0.002% polysorbate 80, 37°C, 24 h, triplicate): 2 μg mL^–1 | MIC (without polysorbate 80) ([6]; 2: DR 42412 (sputum, 24 h)): 2 µg/mL (≈ 1.61 µM) | MBC ([6]; MRSA 2 (MRSA DR 42412), plated on MHA, 37 °C, 24 h): 0.5 μg mL^–1 | MIC ([6]; MRSA 2 (MRSA DR 42412, sputum, clinical isolate), Mueller Hinton broth, 37 °C, 24 h (Table 2)): 0.125 μg mL^–1 | MIC (with polysorbate 80) ([6]; 37 °C, 24 h): 0.125 µg/mL (≈ 0.1 µM) | lipid II spot on TLC [7]: complete disappearance of the lipid II spot | MIC (without polysorbate 80) ([8]; ATCC 700802, 24 h): 4 µg/mL (≈ 3.21 µM) | MIC ([8]; VRE 1 (Enterococcus faecalis VRE ATCC 700802), Mueller Hinton broth (Table 2)): 2 μg mL^–1 | MIC (with polysorbate 80) [8]: 2 µg/mL (≈ 1.61 µM) | MIC (without polysorbate 80) ([9]; ATCC 29212, 24 h): 4 µg/mL (≈ 3.21 µM) | MIC ([9]; VRE 2 (Enterococcus faecalis VRE ATCC 29212), Mueller Hinton broth (Table 2)): 2 μg mL^–1 | MIC (with polysorbate 80) [9]: 2 µg/mL (≈ 1.61 µM)

melittin
haemolytic activity [10]: substantial haemolytic activity

CC[C@H](C)[C@H](NC(=O)[C@@H](Cc1ccccc1)NC)C(=O)N[C@@H](CO)C(=O)N[C@H](CCC(N)=O)C(=O)N[C@@H](C(=O)N[C@H](C(=O)N[C@@H](CO)C(=O)N[C@H]1C(=O)N[C@@H](C)C(=O)N[C@@H](CC(C)C)C(=O)N[C@@H]([C@@H](C)CC)C(=O)O[C@H]1C)[C@@H](C)CC)[C@@H](C)CC [Compound 13, Leu10-teixobactin] (H-[dNMeF]IS[dQ][d(aIle)]IS[dT]ALI; ester 8-C)
time to complete bactericidal activity [11]: ≤ 8 h | MIC ([1]; ATCC 607, 72 h): ~1 μg mL^–1 | MIC (without polysorbate 80) [2]: 1 µg/mL (≈ 0.832 µM) | MIC (with polysorbate 80) [2]: ≤ 0.0625 µg/mL | MBC [2]: 0.125 μg mL^–1 | MIC ([3]; ATCC 700699, 24 h): 0.25 μg mL^–1 | MIC (without polysorbate 80) ([3]; ATCC 700699, 24 h): 2 µg/mL (≈ 1.66 µM) | MBC [3, 12]: 2 μg mL^–1 | MIC (with polysorbate 80) ([3]; 37 °C): 0.25 µg/mL (≈ 0.208 µM) | MIC ([4]; 3: DM21455 (eye, 24 h)): ≤0.0625 μg mL^–1 | MIC (without polysorbate 80) ([4]; 3: DM21455 (eye, 24 h)): 2 µg/mL (≈ 1.66 µM) | MIC (with polysorbate 80) ([4]; 37 °C, 24 h): ≤ 0.0625 µg/mL | MIC ([5]; ATCC 33591, 24 h): 0.25 μg mL^–1 | MIC ([6]; 2: DR 42412 (sputum, 24 h)): ≤0.0625 μg mL^–1 | MIC (without polysorbate 80) ([6]; 2: DR 42412 (sputum, 24 h)): 2 µg/mL (≈ 1.66 µM) | MIC (with polysorbate 80) ([6]; 37 °C, 24 h): ≤ 0.0625 µg/mL | lipid II spot on TLC [7]: complete disappearance of the lipid II spot | MIC ([8]; ATCC 700802, 24 h): 0.25 μg mL^–1 | MIC (without polysorbate 80) ([8]; ATCC 700802, 24 h): 2 µg/mL (≈ 1.66 µM) | MIC (with polysorbate 80) [8]: 0.25 µg/mL (≈ 0.208 µM) | MIC ([9]; ATCC 29212, 24 h): 0.25 μg mL^–1 | MIC (without polysorbate 80) ([9]; ATCC 29212, 24 h): 2 µg/mL (≈ 1.66 µM) | MIC (with polysorbate 80) [9]: 0.25 µg/mL (≈ 0.208 µM)
